Reference: ChEMBL document CHEMBL5113483, “Design and synthesis of NAD(P)H: Quinone oxidoreductase (NQO1)-activated prodrugs of 23-hydroxybetulinic acid with enhanced antitumor properties” (Eur J Med Chem, 2022)
pIC50: −log10 of the molar value.

Tests used:
HT-29 [1] = assay: Induction of cell cycle arrest in human HT-29 cells assessed as accumulation of cells at G2 phase at 1 uM incubated for 48 hrs by RNaeA/propidium iodide based flow cytometry analysis (reference value: 13.96 %); type: functional
[2] = Selectivity index, ratio of IC50 for antiproliferative activity against human HT-29 cells overexpressing NQO1 in presence of dicoumarol to antiproliferative activity against human HT-29 cells overexpressing NQO1; type: functional
HT-29 [3] = assay: Induction of apoptosis in human HT-29 cells assessed as early apoptotic cells at 1 uM incubated for 48 hrs by Annexin V-FITC/PI staining based flow cytometry analysis (Rvb= 2.41%); type: functional
HT-29 [4] = assay: Induction of mitochondrial membrane potential loss in human HT-29 cells assessed as healthy cells at 1 uM incubated for 48 hrs by JC-1 staining based flow cytometry analysis (reference value: 93.4 %); type: functional
HT-29 [5] = assay: Induction of apoptosis in human HT-29 cells assessed as late apoptotic cells at 2 uM incubated for 48 hrs by Annexin V-FITC/PI staining based flow cytometry analysis (Rvb= 1.04%); type: functional
HT-29 [6] = assay: Induction of apoptosis in human HT-29 cells assessed as dead cells at 4 uM incubated for 48 hrs by Annexin V-FITC/PI staining based flow cytometry analysis (Rvb= 0.01%); type: functional
HT-29 [7] = assay: Induction of apoptosis in human HT-29 cells assessed as upregulation of caspase-3 protein expression incubated for 48 hrs by Western blot analysis; type: functional, cell-based; conditions: dose 1-4 µM, DDE = dose-dependent effect
HT-29 [8] = assay: Induction of oxidative stress in human HT-29 cells assessed as increase in intracellular ROS generation incubated for 48 hrs by DCF-DA fluorescent probe based flow cytometry analysis; type: functional, cell-based; conditions: dose 1-4 µM, DDE = dose-dependent effect
HT-29 [9] = assay: Induction of apoptosis in human HT-29 cells assessed as early apoptotic cells at 2 uM incubated for 48 hrs by Annexin V-FITC/PI staining based flow cytometry analysis (Rvb= 2.41%); type: functional
[10] = Selectivity index, ratio of IC50 for antiproliferative activity against NQO1-deficient human NCI-H596 cells to IC50 for antiproliferative activity against human HT-29 cells overexpressing NQO1; type: functional
NCI-H596 = assay: Antiproliferative activity against NQO1-deficient human NCI-H596 cells assessed as inhibition of cell growth incubated for 72 hrs by MTT assay; type: functional, cell-based; conditions: NCI-H596, 72 h
HT-29 [11] = assay: Induction of cell cycle arrest in human HT-29 cells assessed as accumulation of cells at S phase at 2 uM incubated for 48 hrs by RNaeA/propidium iodide based flow cytometry analysis (reference value: 23.06 %); type: functional
HT-29 [12] = assay: Antitumor activity against human HT-29 cells overexpressing NQO-1 xenografted in ICR mouse assessed as reduction in tumor weight at 15 mg/kg, ip administered every day for 21 days and measured every 2 days relative to control; type: functional; design: scale not given: the % may be the effect or the level left; conditions: time 21 day
HT-29 [13] = assay: Induction of cell cycle arrest in human HT-29 cells assessed as accumulation of cells at G2 phase at 2 uM incubated for 48 hrs by RNaeA/propidium iodide based flow cytometry analysis (reference value: 13.96 %); type: functional
HT-29 [14] = assay: Induction of mitochondrial membrane potential loss in human HT-29 cells assessed as JC-1 monomer formation by measuring increase in green intensity at 1 uM incubated for 48 hrs by JC-1 staining based flow cytometry analysis (reference value: 6.54 %); type: functional
HT-29 [15] = assay: Induction of apoptosis in human HT-29 cells assessed as viable cells at 4 uM incubated for 48 hrs by Annexin V-FITC/PI staining based flow cytometry analysis (Rvb= 96.54%); type: functional; conditions: read-out: Activity
[16] = Stability of compound in TRIS buffer at pH 7.4 assessed as compound remaining measured after 60 hrs by HPLC analysis; type: physicochemical; conditions: read-out: Stability
[17] = target: NAD(P)H dehydrogenase [quinone] 1 (Homo sapiens) (UniProt P15559); assay: Substrate activity at lyophilized human NQO1 assessed as compound decomposition measured after 6 hrs by HPLC analysis
Chain of NAD(P)H dehydrogenase [quinone] 1 (Homo sapiens) (P15559 whole entry): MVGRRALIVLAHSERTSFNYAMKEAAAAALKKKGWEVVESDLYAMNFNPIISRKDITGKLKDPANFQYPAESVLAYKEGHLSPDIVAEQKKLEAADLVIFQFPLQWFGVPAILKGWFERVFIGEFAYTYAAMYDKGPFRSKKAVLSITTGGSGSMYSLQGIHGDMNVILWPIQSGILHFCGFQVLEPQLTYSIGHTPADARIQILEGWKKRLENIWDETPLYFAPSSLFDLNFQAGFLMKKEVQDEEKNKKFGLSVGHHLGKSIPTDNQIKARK

HT-29 [18] = assay: Induction of cell cycle arrest in human HT-29 cells assessed as accumulation of cells at G2 phase at 4 uM incubated for 48 hrs by RNaeA/propidium iodide based flow cytometry analysis (reference value: 13.96 %); type: functional
[19] = Selectivity index, ratio of IC50 for cytotoxicity against human HFL1 cells to IC50 for antiproliferative activity against human HT-29 cells overexpressing NQO1; type: toxicity, cell-based; conditions: HFL1 cells versus HT-29 cells overexpressing NQO1, read-out: Ratio IC50
[20] = target: NAD(P)H dehydrogenase [quinone] 1 (Homo sapiens) (UniProt P15559); assay: Substrate activity at lyophilized human NQO1 assessed as compound decomposition measured after 60 hrs by HPLC analysis
[21] = Cytotoxicity against human HFL1 cells assessed as inhibition of cell growth incubated for 72 hrs by MTT assay; type: toxicity, cell-based
HT-29 [22] = assay: Induction of apoptosis in human HT-29 cells assessed as dead cells at 1 uM incubated for 48 hrs by Annexin V-FITC/PI staining based flow cytometry analysis (Rvb= 0.01%); type: functional
HT-29 [23] = assay: Induction of apoptosis in human HT-29 cells assessed as late apoptotic cells at 4 uM incubated for 48 hrs by Annexin V-FITC/PI staining based flow cytometry analysis (Rvb= 1.04%); type: functional
HT-29 [24] = assay: Induction of apoptosis in human HT-29 cells assessed as upregulation of Bax protein expression incubated for 48 hrs by Western blot analysis; type: functional, cell-based; conditions: dose 1-4 µM, DDE = dose-dependent effect
HT-29 [25] = assay: Induction of apoptosis in human HT-29 cells assessed as downregulation of Bcl-xl protein expression incubated for 48 hrs by Western blot analysis; type: functional, cell-based; conditions: dose 1-4 µM, DDE = dose-dependent effect
HT-29 [26] = assay: Antiproliferative activity against human HT-29 cells overexpressing NQO1 assessed as inhibition of cell growth preincubated with NQO1 inhibitor, dicoumarol for 30 mins followed by compound addition and measured after 72 hrs by MTT assay; type: functional, cell-based
A549 = assay: Antiproliferative activity against human A549 cells overexpressing NQO1 assessed as inhibition of cell growth incubated for 72 hrs by MTT assay; type: functional, cell-based; conditions: A549, 72 h
HT-29 [27] = assay: Induction of apoptosis in human HT-29 cells assessed as upregulation of cytochrome C protein expression incubated for 48 hrs by Western blot analysis; type: functional, cell-based; conditions: dose 1-4 µM, DDE = dose-dependent effect
HT-29 [28] = assay: Induction of apoptosis in human HT-29 cells assessed as late apoptotic cells at 1 uM incubated for 48 hrs by Annexin V-FITC/PI staining based flow cytometry analysis (Rvb= 1.04%); type: functional
HT-29 [29] = assay: Induction of apoptosis in human HT-29 cells assessed as viable cells at 1 uM incubated for 48 hrs by Annexin V-FITC/PI staining based flow cytometry analysis (Rvb= 96.54%); type: functional; conditions: read-out: Activity
HT-29 [30] = assay: Induction of cell cycle arrest in human HT-29 cells assessed as accumulation of cells at S phase at 1 uM incubated for 48 hrs by RNaeA/propidium iodide based flow cytometry analysis (reference value: 23.06 %); type: functional
HT-29 [31] = assay: Induction of cell cycle arrest in human HT-29 cells assessed as accumulation of cells at G1 phase at 4 uM incubated for 48 hrs by RNaeA/propidium iodide based flow cytometry analysis (reference value: 62.98 %); type: functional
[32] = Toxicity in […] xenografted with human HT-29 cells overexpressing NQO-1 assessed as reduction in body weight at 30 mg/kg, ip administered for 21 days and measured every 2 days; type: organism-based; conditions: in vivo, 504 h, time 21 day

Compound: C=C(C)[C@@H]1CC[C@]2(C(=O)OCCOC(=O)CCC(=O)OCc3cn(C)c4c3C(=O)C(OC)=CC4=O)CC[C@]3(C)[C@H](CC[C@@H]4[C@@]5(C)CC[C@H](O)[C@@](C)(CO)[C@@H]5CC[C@]43C)[C@@H]12
- Activity (HT-29 [1]): 20.54%
- Ratio IC50 [2]: 4.9
- Activity (HT-29 [3]): 12.54%
- Activity (HT-29 [4]): 79.07%
- Activity (HT-29 [5]): 16.77%
- Activity (HT-29 [6]): 6.74%
- Activity (HT-29 [7]): Dde
- Activity (HT-29 [8]): Dde
- Activity (HT-29 [9]): 22.49%
- Ratio IC50 [10]: 3.44
- pIC50 (NCI-H596): 5.11
- Activity (HT-29 [11]): 22.1%
- Activity (HT-29 [12]): 55.89%
- Activity (HT-29 [13]): 25.17%
- Activity (HT-29 [14]): 20.83%
- viability at 4 µM (HT-29 [15]): 38.4%
- remaining at 60 h [16]: 80%
- Activity [17]: 50%
- Activity (HT-29 [18]): 32.73%
- selectivity ratio [19]: 4.16
- Activity [20]: 100%
- IC50 at 72 h [21]: 6.45 µM
- Activity (HT-29 [22]): 2.16%
- Activity (HT-29 [23]): 22.58%
- Activity (HT-29 [24]): Dde
- Activity (HT-29 [25]): Dde
- pIC50 (HT-29 [26]): 5.04
- pIC50 (A549): 5.63
- Activity (HT-29 [27]): Dde
- Activity (HT-29 [28]): 9.81%
- viability at 1 µM (HT-29 [29]): 75.5%
- Activity (HT-29 [30]): 23.02%
- Activity (HT-29 [31]): 39.61%
- Activity [32]: Non-Toxic
